Among the data in patent publication US20220274967A1, “BCAT MODULATION” (Icagen, LLC, priority 2019, published 2022) are IC50 values, retold here.

One experiment concerns the target T1, BCAT2 (Homo sapiens, UniProt O15382).
T1 sequence (O15382 28-392): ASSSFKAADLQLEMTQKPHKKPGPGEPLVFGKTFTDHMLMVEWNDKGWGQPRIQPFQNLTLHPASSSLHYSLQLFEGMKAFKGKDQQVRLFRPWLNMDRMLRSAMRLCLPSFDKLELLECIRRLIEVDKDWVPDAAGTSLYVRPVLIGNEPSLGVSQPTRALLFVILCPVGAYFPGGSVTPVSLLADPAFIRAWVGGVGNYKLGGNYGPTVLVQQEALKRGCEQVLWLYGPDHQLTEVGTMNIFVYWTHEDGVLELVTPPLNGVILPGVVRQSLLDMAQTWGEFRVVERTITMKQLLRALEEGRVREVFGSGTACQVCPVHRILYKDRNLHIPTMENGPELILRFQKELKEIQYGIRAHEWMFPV
The experiment is described as follows: BCAT2 enzyme inhibition (human). The experiment is classed as biochemical. The method, then:
In further embodiments, the functional modulation of BCAT2 is assayed using a cell-free assay. In various embodiments, the cell-free assay is an enzyme-coupled fluorescent assay. For example, the disclosure contemplates use of an assay that monitors the production of L-glutamate from branch-chain amino acids and α-ketoglutarate through the coupling of hBCATm activity to two additional enzymes, L-Glutamate Oxidase (L-GOx) and Horseradish Peroxidase (HRP). Specifically, L-GOx catabolizes L-glutamate to generate α-ketoglutarate and […], the latter being utilized by HRP and leading to the formation of fluorescent resorufin from the redox-sensitive dye Amplex Red. In some embodiments, the test compound is classified as a candidate compound if a decrease in L-glutamate is measured. In further embodiments, the test compound is classified as a candidate compound if a decrease in α-ketoglutarate is measured.

For another experiment, the system named is GM00371 cells. Put plainly: Viability assay (Cell titer glo) in the 3-HIB assay. The experiment is classed as cell-based, human. Particulars: Homo sapiens, 24 h, read-out: 3HIB INHIBITION IC50 (μM) MEAN GM00371 cells Viablility Assay. Here is the method: Cell Plating: Cells (Coriell Institute GM00371 cells) were plated (96-well clear bottom sterile plate; Greiner 655098) at 10,000 cells/0.1 mL in Eagle's minimum essential medium (EMEM)/15% FBS (Gibco 16000-044) with a Combi dispenser in a cell culture hood and incubated at 37° C. and 5% CO2 overnight.
Compound Dilution: Compound were prepared as 33.3× intermediate dilution in DMSO in 96 well round polystyrene plates. For 30 μM final maximum start with 30 μL of 10 mM in DMSO. 10-12 1:3 serial dilutions were prepared from left to right (20 μL+40 μL DMSO). A 10× secondary dilution was prepare in EMEM by taking 7.5 μL 33.3× and transfer to replicate 96 well round polystyrene plates and then adding 242.5 μL EMEM A 1× final dilution in EMEM was prepared by taking 50 μL 10× dilution and transferring to replicate 96 well polypropylene assay block (Costar 3956) and adding 450 μL EMEM A control was prepared for maximal compound inhibition by taking 20 μL 10 mM Reference Compound A and adding 40 μL DMSO for a concentration of 3.3 mM To 7.5 μL of the 3.3 mM Reference Compound A solution and added 242.5 μL EMEM to make a 100 μM solution. The subsequent Reference Compound A solution was diluted with EMEM to achieve a final concentration of 10 μM. The structure of Reference Compound A is:
A control was prepared for maximal compound toxicity by taking 7.5 μL Reference Compound B and 242.5 μL EMEM to make […]. 50 μL of that 100 μM Reference Compound B solution was combined with 450 μL EMEM to achieve a concentration of 30 μM. The structure of Reference Compound B is
Compound Treatment: Media was aspirated from the cells and 100 μL of D-PBS (ThermoFisher 14190144) was added and then removed. 100 μL of diluted compound was added to the cells in the place and the cells were incubated at 37° C. and 5% CO2 for 24 hours.
Viability Assay: To the cells remaining in the plate 25 μL D-PBS and 25 μL Cell titer glo reagent (Promega G7572). The plate was placed on a shaker for 2 minutes, incubated at room temperature in the dark and then read on a Clariostar microplate reader.
(In general: In ATP-based viability assays light output follows the ATP content of the culture.)

A further experiment addresses T2, BCAT1 (Homo sapiens, UniProt P54687).
T2 sequence (P54687 1-386): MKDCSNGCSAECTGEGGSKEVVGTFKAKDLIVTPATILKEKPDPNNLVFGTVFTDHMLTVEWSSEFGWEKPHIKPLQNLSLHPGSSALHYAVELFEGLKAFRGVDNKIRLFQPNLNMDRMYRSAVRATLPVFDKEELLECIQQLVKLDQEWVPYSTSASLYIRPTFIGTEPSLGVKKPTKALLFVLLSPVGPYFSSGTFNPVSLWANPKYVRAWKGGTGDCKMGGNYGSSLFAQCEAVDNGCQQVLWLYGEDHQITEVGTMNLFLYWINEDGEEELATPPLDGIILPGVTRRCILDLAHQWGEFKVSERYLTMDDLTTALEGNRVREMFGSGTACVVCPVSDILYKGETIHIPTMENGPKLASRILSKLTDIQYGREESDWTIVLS
The experiment is described as follows: BCAT1 enzyme inhibition (human), Glutamate Glo luminescence. It is filed as biochemical. Here is the method: The BCAT1 inhibitory activity of selected compounds of the present disclosure were also evaluated. Compounds were prepared as up to 10 mM stock solutions generally using DMSO as the vehicle. 10-point dose response curves were generated using the Echo-550 (Labcyte) acoustic dispenser. Compound source plates ([…]) were made by serially diluting compound stocks to create 1 mM, 0.1 mM, and 0.01 mM solutions in DMSO into Echo certified LDV plates. The Echo then serially spotted 100% DMSO stock solutions into source dose response plates to generate a semi-log fold dilution scheme. 100% DMSO was added to the spotted dose response plates to bring the final volume to 5 μL, creating a 333× stock plate. 120 nL of the dose response stock plate was then spotted into the assay plate. 10 μL of assay buffer (50 mM Tris with 0.05% TWEEN-20) was then added to the plates resulting in a 4× working concentration in the assay plate. Final assay test concentration range was 3 μM to 0.0001 μM with a final DMSO concentration of 0.3%.
BCAT1 enzyme stock was first diluted to a 4× working concentration of 0.24 μg/mL in assay buffer (final assay concentration is 0.06 ug/ml). 10 μL of the 4×BCAT1 solution was then added to the previously prepared assay plate containing test compound or controls, and incubated at room temperature, protected from light, for either 10 or 60 minutes. After the compound incubation period, 20 μL of assay buffer plus 2× substrate is added to all wells (Final assay concentration of substrates is 300 μM L-leucine and 250 μM alpha-ketoglutaric acid). Enzyme reaction was then incubated for 10 minutes at room temperature. After the 10 minute incubation, the enzymatic reaction was halted with the addition of 5 μL of 0.6N HCl and incubated for 1 min. 5 μL of 1M Tris (pH 8.0) was then added to neutralize pH. 12.5 μL of the quenched assay volume was then transferred to a white, 384 well plate and 12.5 μL of Glutamate detection reagent was added (detection reagent prepared per Promega Glutamate Glo kit instructions). Plates were then incubated for 30 minutes at room temperature, protected from light. After glutamate detection incubation period, luminescence was read on BMG Novostar and relative light units was measured and exported for analysis.
Compound modulation of BCAT1 enzymatic activity was determined as follows. IC50 values were calculated in ActivityBase, using a 4-parameter fit equation. Data was normalized to maximum inhibition form the reference agent VS558CSA (at 10 μM). Relative light units were exported for analysis and % inhibition values for each well were calculated using the following formula: […]

The term IC50 denotes the concentration at which inhibition is half-maximal. Consider `CNC(=O)c1ccc2c(c1)nc(-c1ccccc1C(F)F)n2C1CCC[C@@H](NC(=O)c2ccc(Br)s2)C1` (stereo partly drawn) [Compound 223], for which the half-maximal inhibitory concentration (IC50) was less than 100 nM against BCAT2, 0.1 to 0.5 µM in the experiment with GM00371 cells and less than 100 nM at BCAT1.

For the compound `CNC(=O)c1ccc2c(c1)nc(-c1ccccc1C(F)F)n2C1CCC[C@@H](NC(=O)c2ccc(C#N)s2)C1` (stereo partly drawn) [Compound 221], the IC50 against BCAT2 is less than 100 nM; with GM00371 cells, no less than 1 µM; on BCAT1, 100 to 500 nM.

For `CNC(=O)c1cc2nc(-c3ccccc3F)n(C3CCC[C@@H](NC(=O)c4ccc(F)s4)C3)c2cc1F` (stereo partly drawn) [Compound 226], the results for the IC50 against BCAT2, with GM00371 cells and at BCAT1 were less than 100 nM, 0.5 to 1 µM and 100 to 500 nM, respectively.

On to `CNC(=O)c1cc2nc(-c3ncccc3F)n([C@H]3CCC[C@@H](NC(=O)c4ccc(Cl)s4)C3)c2cn1` [Compound 286, 3-((1S,3R)-3-(5-chlorothiophene-2-carboxamido)cyclohexyl)-2-(3-fluoropyridin-2-yl)-N-methyl-3H-imidazo[4,5-c]pyridine-6-carboxamide], for which the IC50 on BCAT2 and on BCAT1 was less than 100 nM in each case.

On to `O=C(N[C@@H]1CCC[C@H](n2c(-c3ccccn3)nc3cnc(F)cc32)C1)c1ccc(Br)s1` [Compound 302], for which the figures for the IC50 against BCAT2 and at BCAT1 were less than 100 nM and 500 to 1000 nM, respectively.

For `CNC(=O)c1ccn2c(C3CCCC(NC(=O)c4ccc(Br)s4)C3)c(-c3ccccc3)nc2c1` (stereo not drawn) [Compound 303], the IC50 against BCAT2 is 100 to 500 nM; against BCAT1, no less than 1000 nM.

Turning to `CNC(=O)c1cc2nc(-c3ccccn3)n([C@H]3CCC[C@@H](NC(=O)c4ccc(Cl)s4)C3)c2cc1Cl` [Compound 235], the IC50 against BCAT2 is 500 to 1000 nM; against BCAT1, no less than 1000 nM.

With `CNC(=O)c1cc2nc(-c3ncccc3F)n([C@H]3CCC[C@@H](NC(=O)c4ccc(Br)s4)C3)c2cc1Cl` [Compound 237], the IC50 at BCAT2 is 100 to 500 nM; against BCAT1, no less than 1000 nM.

For `N#Cc1ccc2c(c1)nc(-c1ccccn1)n2[C@H]1CCC[C@@H](NC(=O)c2ccc(Br)s2)C1` [Compound 194], the IC50 against BCAT2 was less than 100 nM; against BCAT1, no less than 1000 nM.

`CNC(=O)c1cc2nc(-c3c(F)ccc(F)c3O)n([C@H]3CCC[C@@H](NC(=O)c4ccc(C#N)s4)C3)c2cc1F` [Compound 232]: the results for the IC50 against BCAT2 and on BCAT1 were less than 100 nM and no less than 1000 nM, respectively.

As for `CNC(=O)c1ccc2c(c1)nc(-c1ccccn1)n2C1CCCN(C(=O)Nc2cccc(Cl)c2)C1` (stereo not drawn) [Compound 217], the 50% inhibitory concentration (IC50) against BCAT2 was greater than 1000 nM; on BCAT1 it was no less than 1000 nM.

As to `CNC(=O)c1ccc2c(c1)nc(-c1ncccn1)n2[C@H]1CCC[C@@H](NC(=O)c2ccc(Br)s2)C1` [Compound 147], the IC50 against BCAT2 is less than 100 nM; against BCAT1, no less than 1000 nM.

Turning to `O=C(N[C@@H]1CCC[C@H](n2c(-c3ccccn3)nc3ccncc32)C1)c1ccc(Br)s1` [Compound 294], the half-inhibitory concentration (IC50) on BCAT2 is 100 to 500 nM; against BCAT1, no less than 1000 nM.

For `O=C(N[C@@H]1CCC[C@H](n2c(-c3ccccn3)nc3cnc(F)cc32)C1)c1ccc(Cl)s1` [Compound 288], the IC50 was 100 to 500 nM at BCAT2 and no less than 1000 nM against BCAT1.

In the case of `O=C(N[C@@H]1CCC[C@H](n2c(-c3ccccn3)nc3cccnc32)C1)c1ccc(Br)s1` [Compound 280], the IC50 on BCAT2 was 100 to 500 nM; against BCAT1 it was no less than 1000 nM.

Regarding `CNC(=O)c1cc2nc(-c3c(F)ccc(F)c3O)n([C@H]3CCC[C@@H](NC(=O)c4ccc(Cl)s4)C3)c2cc1F` [Compound 231], the IC50 against BCAT2 is less than 100 nM; against BCAT1, no less than 1000 nM.

On to `CNC(=O)c1cc2nc(-c3ccccn3)n([C@H]3CCC[C@@H](NC(=O)c4ccc(Cl)s4)C3)c2cc1O` [Compound 240], for which the IC50 against BCAT2 is less than 100 nM; against BCAT1 it was 500 to 1000 nM.

Turning to `CNC(=O)c1ccc2c(c1)nc(-c1ccccn1)n2[C@H]1CCC[C@@H](NC(=O)c2sc(Cl)cc2Cl)C1` [Compound 242], the IC50 against BCAT2 is greater than 1000 nM; at BCAT1 it was no less than 1000 nM.

On to `CNC(=O)c1ccc2c(c1)nc(-c1ccccn1)n2[C@H]1CCC[C@@H](NC(=O)c2sc(Cl)cc2OC)C1` [Compound 243], for which the figures for the IC50 at BCAT2 and on BCAT1 were 100 to 500 nM and no less than 1000 nM, respectively.

Turning to `CNC(=O)c1cc2nc(-c3c(F)ccc(F)c3O)n([C@H]3CCC[C@@H](NC(=O)c4ccc(Br)s4)C3)c2cc1F` [Compound 233], the IC50 at BCAT2 is less than 100 nM; against BCAT1, 500 to 1000 nM.

`CNC(=O)c1ccc2c(c1)nc(-c1ccccn1)n2[C@H]1CCC[C@@H](NC(=O)c2sc(Br)cc2F)C1` [Compound 241]: the IC50 at BCAT2 is less than 100 nM; on BCAT1, no less than 1000 nM.

For the compound `N#Cc1cc2nc(-c3ccccc3C#N)n(C3CCCC(NC(=O)c4ccc(Br)s4)C3)c2cn1` (stereo not drawn) [Compound 306], the results for the half-maximal inhibitory concentration (IC50) against BCAT2 and against BCAT1 were less than 100 nM and no less than 1000 nM, respectively.

Take `CNC(=O)c1ccc2c(c1)nc(-c1c(O)ccc(F)c1F)n2[C@H]1CCC[C@@H](NC(=O)c2ccc(Br)s2)C1` [Compound 180]: the figures for the IC50 on BCAT2 and on BCAT1 were less than 100 nM and 500 to 1000 nM, respectively.

Consider `CNC(=O)c1cc2nc(-c3ccccn3)n([C@H]3CCC[C@@H](NC(=O)c4ccc(Br)s4)C3)c2cc1Cl` [Compound 238], for which the IC50 was 100 to 500 nM at BCAT2 and no less than 1000 nM against BCAT1.
